Laboratory results as given in patent publication US5753483A (priority 1995, dated 1998).
“Also recorded” adds a separate entry of the source. Like-named read-outs stand apart in the source and are kept apart here. Values belong to the molecule of their own block, whether it stands above or below them.

How the values were obtained:
Pyrophosphorylase [1] = molecular target: T1, Pyrophosphorylase (Sus scrofa, UniProt F1S210); test: Specificity of pyrophosphorylase (forward direction); assay type: biochemical, pig; settings: for Activity / Relative Activity: sugar phosphate 5 mM, UT = 5 mM; for Relative Activity: GalNAc-1-P = 100
T1 construct: 64 and 55 kDa bands; native about 125 kDa
Procedure: (§1) After an incubation of 10 minutes at 37° C., the reaction was terminated by heating the tubes in a boiling water bath for 30 seconds. The amount of product could either be determined by measuring the amount of radioactivity that bound to DE-52 (HCO3 -) after treatment of the reaction mixtures with alkaline phosphatase, or the product could be detected by TLC.
(§2) The substrate specificity of the purified enzyme was examined in both the forward and the reverse direction.

[2] = tested on: UDP-GlcNAc pyrophosphorylase; test: Kinetic constants, forward direction (sugar-1-P + UTP); assay type: biochemical, pig
Procedure: as §1

sheep brain enzyme = settings: cited from earlier work
[3] = molecular target: T2, UDP-GlcNAc pyrophosphorylase (Sus scrofa, UniProt F1S210); test: Photoaffinity labeling of purified pyrophosphorylase and its inhibition (FIG. 5); assay type: binding, pig; settings: for labeling of enzyme subunits by probe: UV light, SDS-PAGE
T2 construct: both 64 and 55 kDa bands photolabelled
Procedure: Enzyme was incubated with radioactive probe in the presence or absence of various inhibitors, and some of the incubations were exposed to UV light to activate the probe. Each incubation was treated with trichloroacetic acid to precipitate the protein, and the pellet was resuspended in SDS and subjected to SDS-PAGE. Radioactive proteins were detected by exposure to film. […]

[4] = tested on: UDP-GlcNAc pyrophosphorylase; settings: reverse direction
Procedure: (§3) When measured in the reverse direction, either a direct assay or an indirect assay could be used. […] The incubation mixtures contained the following components in a final volume of 50 μl: 5 mM sodium pyrophosphate, 250 uM UDP-[^3 H]GlcNAc (2.2 Ci/mmol), 100 mM Tris HCl buffer, pH 8.5, 2 mM MgCl2, and various amounts of enzyme at the different stages of purification. […] The suspension was vortexed vigorously for 2 minutes, and was then centrifuged in a microfuge. The supernatant liquid was removed and saved, and the charcoal was washed with 1 ml of water. The supernatant liquid from this wash was combined with the first supernatant liquid, and an aliquot was removed and counted, as a measure of the formation of GlcNAc-1-P.
(§4) For the indirect assay, a modification of the spectrophotometric method of Munch-Petersen, (1956) Acta Chim. Scand. […] The assay mixtures contained 50 mM Tris-HCl buffer, pH 7.5, 1 mM MgCl2, 0.5 mM ADP, 1 mM glucose, 0.5 mM NADP, 1 mM inorganic pyrophosphate, 2 mM UDP-HexNAc and 2.5 units each of nucleoside diphosphate kinase, hexokinase and glucose-6-P dehydrogenase.

[5] = tested on: UDP-GlcNAc pyrophosphorylase; settings: [^3 H]UTP + GlcNAc-1-P, 2 hours
Procedure: The reaction products, formed in either the forward direction (i.e., uridine diphosphate sugars), or in the reverse direction (i.e., UTP and sugar-i-P's), were isolated by chromatography on a 1×20
column of DEAE-cellulose (HCO3 -), equilibrated in 10 mM NH4 HCO3. After application of the sample, the column was washed with the same solution and the retained products were eluted with 200 ml of a linear 10 to 300 mM gradient of NH4 HCO3. Fractions were analyzed for nucleotides by measuring the absorption at 260 nm, for radioactivity by scintillation counting, and for hexosamine by the Reissig test (J. Biol. Chem., 217, 959-966, 1955) or the or the Elson Morgan assay (Wheat, R. W. (1966) Meth. Enzymol. 8, 60-78). Peak fractions were pooled and concentrated on a rotary evaporator and NH4 H CO3 was removed by evaporation in the presence of triethylamine. The triethylamine was in turn removed by evaporation in the presence of methanol.
The reaction products were identified by chromatography, either directly, or following various treatments such as digestion with phosphodiesterase or alkaline phosphatase, or acid hydrolysis. Nucleotides were identified by TLC in the following systems: PEI plates developed in 0.2M and 0.4M solutions of LiCl; cellulose plates in ethanol: 1M ammonium acetate, pH 7.3 (7:3), or silica gel plates in ethanol: 1M ammonium acetate, pH 5.0 (7:3). N-acetyl-hexosamines were released from nucleotides by mild acid hydrolysis (0.01 N HCl, 100° C., 15 minutes) and identified by chromatography on borate-treated paper in n-butanol:pyridine:water (6:4:3) as described earlier by Cardini and Leloir, (1953) Arch. Biochem. Biophys., 45, 317-324.
After deproteinization, the aqueous phase was applied to a column of DE-52 and sugar phosphates and nucleoside diphosphate sugars were separated with a gradient of NH4 HCO3, as shown in FIG. 4. […] The peak was pooled and subjected to TLC in 3 different solvent systems as described above.
The characterization of these products was also based on the products produced by phosphosdiesterase, mild acid hydrolysis and other treatments.

Pyrophosphorylase [6] = molecular target: T1, Pyrophosphorylase; test: Specificity of pyrophosphorylase (reverse direction); assay type: biochemical, pig; settings: 5 mM, PP = 1 mM; for Relative Activity: UDP-GalNAc = 100
Procedure: as §3, §4, §2

Pyrophosphorylase [7] = molecular target: T1, Pyrophosphorylase; test: Putative inhibitors of pyrophosphorylase; assay type: biochemical, pig; settings: for inhibition at 1000 µM: 1.0 mM; for inhibition at 100 µM: 0.1 mM
Procedure: A variety of other inhibitors were tested, including various sulfhydryl reagents and metal chelators.

[8] = tested on: UDP-GlcNAc pyrophosphorylase from brain; settings: cited from earlier work
Pyrophosphorylase [9] = molecular target: T1, Pyrophosphorylase; test: Effects of metal ions on pyrophosphorylase activity; assay type: biochemical, pig; settings: metal ion 1 mM
From the text: Other ions such as Fe^+++, Ca^++ and Hg^++ were ineffective.

[10] = at 1 mM UTP, read-out: apparant Km
[11] = at 1 mM inorganic pyrophosphate
[12] = metal chelators, as long as sufficient Mn++ was added

T2 sequence (F1S210 1-505): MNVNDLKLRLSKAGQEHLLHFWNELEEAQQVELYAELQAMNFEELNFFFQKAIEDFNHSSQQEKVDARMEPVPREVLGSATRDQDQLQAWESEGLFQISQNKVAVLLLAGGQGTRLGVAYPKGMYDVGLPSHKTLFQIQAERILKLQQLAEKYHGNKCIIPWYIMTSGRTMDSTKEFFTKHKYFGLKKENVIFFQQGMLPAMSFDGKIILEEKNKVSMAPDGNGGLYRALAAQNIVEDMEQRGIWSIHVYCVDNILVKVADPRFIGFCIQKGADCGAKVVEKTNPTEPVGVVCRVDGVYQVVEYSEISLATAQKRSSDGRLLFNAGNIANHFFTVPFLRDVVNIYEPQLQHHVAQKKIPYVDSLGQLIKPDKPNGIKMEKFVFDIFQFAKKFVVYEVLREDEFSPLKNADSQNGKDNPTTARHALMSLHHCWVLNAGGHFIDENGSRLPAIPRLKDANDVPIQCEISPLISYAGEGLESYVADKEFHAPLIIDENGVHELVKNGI
T1 sequence (F1S210 1-505): as above

Molecule: O=P(O)(O)O[C@H]1O[C@H](CO)[C@@H](O)[C@H](O)[C@H]1O [Glc-1-P, glucose-1-P]
substrate preference, forward direction (Pyrophosphorylase [1]): may act as substrates but to a much lower degree
Activity (Pyrophosphorylase [1]): 0.20 nmol/min
Relative Activity (Pyrophosphorylase [1]): 4%
Vmax ([2]; at 1 mM UTP): 1.7 nmol/min
Km [2, 10]: 66600 µM

Km [4, 11]: 50 µM
Vmax [4, 11]: 22.2 nmol/min
amount in UDP-GlcNAc area [5]: 7.9 µmol
radioactivity in UDP-GlcNAc area, share of total [5]: 79%
Activity (Pyrophosphorylase [6]): 13.0 nmol/min
Relative Activity (Pyrophosphorylase [6]): 66%
Molecule: CC(=O)NC1C(OP(=O)(O)OP(=O)(O)OCC2OC(n3ccc(=O)[nH]c3=O)C(O)C2O)OC(CO)C(O)C1O (stereo not shown) [UDP-GlcNAc, UDP-N-acetylglucosamine]
activity as substrate (in words) (sheep brain enzyme): most active
inhibition of labeling ([3]; unlabeled UDP-GlcNAc 0.01 mM to 1 mM): labeling was efficiently blocked; also recorded: effectively inhibited the labeling of both subunits to about the same extent; also recorded: labeling is blocked

Molecule: 5-azido-salicylic-[^125 I]-allylamine-UDP-GlcNAc [5-azido-ASA-UDP-GlcNAc]
labeling of enzyme subunits by probe [3]: both the 64 kDa and the 55 kDa subunits of the enzyme became labeled with the probe
labeling of enzyme subunits by probe ([3]; listed as [^125 I]-N3 -salicyclic acid-allylamine-UDP-GlcNAc): Both subunits became labeled by this probe and labeling was saturable with increasing concentrations of probe
labeling of enzyme subunits by probe ([3]; listed as azido-[^125 I]-salicyclic acid-allylamine-UDP-GlcNAc): they both become labeled
labeling of GlcNAc transferases by probe (GlcNAc transferases): does label the pyrophosphorylase and some GlcNAc transferases

Molecule: NC(=O)CI [Iodoacetamide]
inhibition at 1000 µM (Pyrophosphorylase [7]): 44%

Activity (Pyrophosphorylase [6]): 1.4 nmol/min
Relative Activity (Pyrophosphorylase [6]): 7%
Molecule: O=C(O)[C@H]1O[C@H](OP(=O)(O)OP(=O)(O)OC[C@H]2O[C@@H](n3ccc(=O)[nH]c3=O)[C@H](O)[C@@H]2O)[C@H](O)[C@@H](O)[C@@H]1O [UDP-GlcCOOH, UDP-glucuronic acid]
inhibition of labeling ([3]; even at 1 mM): None of these sugar nucleotides showed any inhibition of the labeling

Molecule: O=C(O)CN(CCN(CC(=O)O)CC(=O)O)CC(=O)O [EDTA]
inhibition at 100 µM (Pyrophosphorylase [7]): 5%
inhibition at 1000 µM (Pyrophosphorylase [7]): 13%
inhibition (in words) (Pyrophosphorylase [7]; [12]): did not inhibit

inhibition of labeling ([3]; nucleotides): very little inhibition of labeling
Molecule: Nc1nc2c(ncn2[C@@H]2O[C@H](COP(=O)(O)OP(=O)(O)O)[C@@H](O)[C@H]2O)c(=O)[nH]1 [GDP]

Km ([4]; at 1 mM UDP-GlcNAc): 70 µM
Vmax ([4]; at 1 mM UDP-GlcNAc): 20 nmol/min
Molecule: O=P(O)(O)OP(=O)(O)O [inorganic pyrophosphate]

Activity (Pyrophosphorylase [1]): 5.28 nmol/min
Relative Activity (Pyrophosphorylase [1]): 100%
Vmax ([2]; at 1 mM UTP): 7.1 nmol/min
Km [2, 10]: 5500 µM
Molecule: CC(=O)N[C@H]1[C@@H](OP(=O)(O)O)O[C@H](CO)[C@H](O)[C@@H]1O [GalNAc-1-P]
substrate preference, forward direction (Pyrophosphorylase [1]): GalNAc-1-P over GlcNAc-1-P; also recorded: prefers GalNAc-1-P slightly over GlcNAc-1-P

inhibition at 100 µM (Pyrophosphorylase [7]; read-out: Inhibition): 8%
inhibition at 1000 µM (Pyrophosphorylase [7]; read-out: Inhibition): 13%
inhibition (in words) (Pyrophosphorylase [7]; [12]): did not inhibit
Molecule: O=C(O)CN(CCOCCOCCN(CC(=O)O)CC(=O)O)CC(=O)O [EGTA]

Molecule: N[C@H]1[C@@H](OP(=O)(O)O)O[C@H](CO)[C@@H](O)[C@@H]1O [GlcN-1-P]
Activity (Pyrophosphorylase [1]): 0.10 nmol/min
Relative Activity (Pyrophosphorylase [1]): 2%

Activity (Pyrophosphorylase [1]): 0 nmol/min
Molecule: N[C@H]1C(OP(=O)(O)O)O[C@H](CO)[C@H](O)[C@@H]1O (stereo partly shown) [GalN-1-P]

Molecule: O=c1ccn([C@@H]2O[C@H](COP(=O)(O)OP(=O)(O)O[C@H]3OC[C@@H](O)[C@H](O)[C@H]3O)[C@@H](O)[C@H]2O)c(=O)[nH]1 [UDP-xylose]
inhibition of labeling ([3]; even at 1 mM): None of these sugar nucleotides showed any inhibition of the labeling

inhibition (in words) (Pyrophosphorylase [7]; even at 10 mM): nor did inorganic phosphate
Molecule: O=P(O)(O)O [inorganic phosphate]

Molecule: O=c1ccn([C@@H]2O[C@H](COP(=O)(O)OP(=O)(O)OP(=O)(O)O)[C@@H](O)[C@H]2O)c(=O)[nH]1 [UTP]
inhibition of labeling ([3]; nucleotides): very little inhibition of labeling
Vmax ([2]; UTP as substrate, at 10 mM GlcNAc-1-P): 4.8 nmol/min
Km ([2]; UTP as substrate, at 10 mM GlcNAc-1-P, read-out: Km): 2500 µM

Molecule: O=P(O)(O)O[C@H]1O[C@H](CO)[C@H](O)[C@H](O)[C@H]1O [Gal-1-P]
substrate preference, forward direction (Pyrophosphorylase [1]): may act as substrates but to a much lower degree
Activity (Pyrophosphorylase [1]): 0.14 nmol/min
Relative Activity (Pyrophosphorylase [1]): 3%

inhibition of labeling ([3]; nucleotides): a small effect
Molecule: O=c1ccn([C@@H]2O[C@H](COP(=O)(O)O)[C@@H](O)[C@H]2O)c(=O)[nH]1 [UMP]

Molecule: Nc1nc2c(ncn2[C@@H]2O[C@H](COP(=O)(O)OP(=O)(O)O[C@H]3O[C@H](CO)[C@@H](O)[C@H](O)[C@@H]3O)[C@@H](O)[C@H]2O)c(=O)[nH]1 [GDP-mannose]
inhibition of labeling ([3]; even at 1 mM): None of these sugar nucleotides showed any inhibition of the labeling

Molecule: Nc1ncnc2c1ncn2[C@@H]1O[C@H](COP(=O)(O)OP(=O)(O)OP(=O)(O)O)[C@@H](O)[C@H]1O [ATP]
inhibition of labeling ([3]; nucleotides): very little inhibition of labeling

Molecule: CCN1C(=O)C=CC1=O [N-ethylmaleimide]
inhibition at 10 µM (Pyrophosphorylase [7]; 0.01 mM): 3%
inhibition at 100 µM (Pyrophosphorylase [7]): 46%
inhibition at 1000 µM (Pyrophosphorylase [7]): 72%

inhibition of labeling ([3]; nucleotides): very little inhibition of labeling
Molecule: O=c1ccn([C@@H]2O[C@H](COP(=O)(O)OP(=O)(O)O)[C@@H](O)[C@H]2O)c(=O)[nH]1 [UDP]

inhibition of labeling ([3]; nucleotides): very little inhibition of labeling
Molecule: Nc1nc2c(ncn2[C@@H]2O[C@H](COP(=O)(O)OP(=O)(O)OP(=O)(O)O)[C@@H](O)[C@H]2O)c(=O)[nH]1 [GTP]

inhibition at 100 µM (Pyrophosphorylase [7]; read-out: Inhibition): 5%
inhibition at 1000 µM (Pyrophosphorylase [7]; read-out: Inhibition): 16%
inhibition (in words) (Pyrophosphorylase [7]; [12]): did not inhibit
Molecule: c1cnc2c(c1)ccc1cccnc12 [O-Phenanthroline, 1, 10-phenanthroline]

Activity (Pyrophosphorylase [1]): 4.83 nmol/min
Relative Activity (Pyrophosphorylase [1]): 91%
Vmax ([2]; at 1 mM UTP): 3.1 nmol/min
Km [2, 10]: 2000 µM
Molecule: CC(=O)N[C@H]1[C@@H](OP(=O)(O)O)O[C@H](CO)[C@@H](O)[C@@H]1O [GlcNAc-1-P]

inhibition at 100 µM (Pyrophosphorylase [7]; read-out: Inhibition): 21%
inhibition at 1000 µM (Pyrophosphorylase [7]; read-out: Inhibition): 62%
Molecule: O[C@H](CS)[C@H](O)CS (racemic) [Dithiothreitol]

Activity (Pyrophosphorylase [6]): 1.3 nmol/min
Relative Activity (Pyrophosphorylase [6]): 7%
Molecule: O=C(O)[C@H]1O[C@H](OP(=O)(O)OP(=O)(O)OC[C@H]2O[C@@H](n3ccc(=O)[nH]c3=O)[C@H](O)[C@@H]2O)[C@H](O)[C@@H](O)[C@H]1O [UDP-GalCOOH]

Activity (Pyrophosphorylase [6]): 0.6 nmol/min
Relative Activity (Pyrophosphorylase [6]): 3%
Molecule: Nc1ncnc2c1ncn2[C@@H]1O[C@H](COP(=O)(O)OP(=O)(O)O[C@H]2O[C@H](CO)[C@@H](O)[C@H](O)[C@H]2O)[C@@H](O)[C@H]1O [ADP-Glc]

Activity (Pyrophosphorylase [9]): 4.89 nmol
Activity (Pyrophosphorylase [9]; Mn++ = 100): 100%
Molecule: [Mn+2] [Mn++, manganese]
effectiveness as cation [8]: then Mn^++
